Assay type in all cases: biochemical
The target of one assay is T1, PP2A (Homo sapiens, UniProt P67775).
T1 construct: purified from human red blood cells; purchased Merck Millipore; host or cells: human red blood cells
Description: DiFMUP assay for PP2A. Particulars: 0.05 U PP2A, 30 min preincubation, 25°C, no BSA, mean ± SEM (n = 3–5), read-out: IC50 (Ki) PP2A. The method, then:
(§1) Fig 2 Effect of polyphenolic compounds 8 (A), 9 (B), 10 (C) and 11 (D) on the phosphatase activity of PRL-1, PRL-2, PRL-3, PP1, and PP2A. Proteins were incubated for 30 min with 0–1000 μM of the corresponding procyandin 8–11. Phosphatase activity was measured in the presence of DiFMUP at 25°C using the concentration corresponding to the KM of each protein. The KM for PRLs was determined separately (PRL-3 = 21 μM, PRL-2 and PRL-1 = 24 μM). The KM for PP1 (91 μM) and for PP2A (100 μM) was taken from the literature. Protein concentrations are 50 nM for all PRLs and 2 mU for PP1 and 0.05 U for PP2A (see the Experimental Procedures). Phosphatase activity in the absence of inhibitors was set as 100%. Data represent means ± standard errors of the mean (n = 3–5).
BSA, which is usually supplemented to the assay buffer for stabilizing the PPs was however excluded, as BSA is known to form complexes with polyphenolic compounds [40–42] and thus would decrease the concentrations of the inhibitor in the assay. […] In contrast, the phosphatase activity of PP2A was suppressed to a much lesser extent with weak (for trimer 9 and hexamer 11) and strong statistical significance (dimer 8 and tetramer 10). Thus our results corroborate the data reported previously.
Chemicals and vendors were as follows: Synthesis of Procyanidins (dimer to dodecamer) was done as previously reported. EGCG, EGC, ECG and EC were synthesized as previously reported or purchased from Sigma. (+)-Catechin and 3-(4,5-dimethylthiazol-2-yl)-2,5-diphenyltetrazolium bromide (MTT) were obtained from Sigma. 6,8-Difluoro-4-Methylumbelliferyl Phosphate (DiFMUP), propidium iodide and calcein AM were from lifescience technologies. Cell dissociation solution (10X) was purchased from amsbio. PP1c (recombinant from E. coli) was purchased from NewEngland Biolabs and PP2A (purified from human red blood cells, contains different subunits according to manufacturer) from Merck Millipore. Transwell plates (BRANDplates) and insert stripes for the migration assay were purchased from Brand GmbH. Black 96 well plates (96F Nunclon Delta) were purchased from Thermo Scientific. Transparent 96 well assay plates with UV transparent bottom were purchased from Corning Inc. Wound healing experiments were carried out with μ-dish 35 mm culture inserts, which were purchased from Ibidi.
DiFMUP assay for PP2A: In a final reaction volume of 100 μL PP2A (0.05 U final concentration, according to manufacturer’s instructions) were incubated with decreasing concentrations of the inhibitory polyphenols for 30 minutes at 25°C. The assay buffer contained 50 mM TrisCl (pH 7.5), 250 mM NaCl, 0.1 mM EDTA, 1 mM MnCl2, and 2 mM dithiothreitol (DTT). […] Monitoring of the fluorescent dephosphorylation product was monitored and data analyzed as described above.

A further assay deals with T2, PRL-1 (Homo sapiens, UniProt Q93096).
T2 construct: His-TEV (cleaved yes); made in house
T2 sequence (Q93096 1-173): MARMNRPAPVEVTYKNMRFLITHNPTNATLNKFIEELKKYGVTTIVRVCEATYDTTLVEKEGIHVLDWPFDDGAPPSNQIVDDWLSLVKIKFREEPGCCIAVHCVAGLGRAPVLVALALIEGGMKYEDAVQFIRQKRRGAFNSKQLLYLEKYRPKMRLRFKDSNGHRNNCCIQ
Description: DiFMUP phosphatase activity assay for PRLs. The following applies: for IC50: 50 nM PRL-1, 30 min preincubation, 25°C, 24 μM DiFMUP, mean ± SEM (n = 3–5), read-out: IC50 (Ki) PRL-1. The method, then:
as §1
(§2) DiFMUP assay for PRLs: In a final reaction volume of 100 μL the PRLs (50 nM final concentration) were incubated with decreasing concentrations of the inhibitory polyphenols for 30 minutes at 25°C. The buffer conditions were 108 mM TrisCl (pH 7.5), Triton 0.05% (v/v), DTT 27.0 mM, NaCl 811 mM. After the incubation time 20 μL DiFMUP (6,8-Difluoro-4-methylumbelliferyl phosphate) was added to reach a final concentration of 21 μM for PRL-3 and 24 μM for PRL-1 and PRL-2. On a Tecan safire2 (Tecan, Salzburg, Austria) plate reader dephosphorylation of the substrate to its fluorescent product was monitored by following the emission at 358 nm with excitation at 452 nm for 20 minutes. All measurements were done in triplicates, and the experiments were repeated at least three times. The slopes of the initial phases were obtained by linear regression of the data points. The normalized reaction rates were plotted versus the log of the inhibitor concentrations and the IC50 values were obtained by fitting the curves using the one site competition model of GraphPad Prism (GraphPad Software, Version 5). KM values were determined by measuring reaction kinetics of substrate dilution series. Initial velocities were plotted against DiFMUP concentration and the data was analyzed by Michaelis-Menten kinetics curve fitting of GraphPad Prism. A final DMSO content of 0.4% was maintained for the monomeric catechins. Due to the high water solubility of the procyanidins DMSO was not required and measurements were done in assay buffer only.

The next assay concerns the target T3, PRL-2 (Homo sapiens, UniProt Q12974).
T3 construct: His-TEV (cleaved yes); made in house
T3 sequence (Q12974 1-167): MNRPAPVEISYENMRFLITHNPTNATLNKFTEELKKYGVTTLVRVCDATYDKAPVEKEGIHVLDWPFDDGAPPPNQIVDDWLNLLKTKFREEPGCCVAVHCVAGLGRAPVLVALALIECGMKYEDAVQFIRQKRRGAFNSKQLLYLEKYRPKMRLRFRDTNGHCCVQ
As to the kind of experiment: DiFMUP phosphatase activity assay for PRLs. The following applies: 50 nM PRL-2, 30 min preincubation, 25°C, 24 μM DiFMUP; mean ± SEM (n = 3–5); read-out: IC50 (Ki) PRL-2. As to the method:
as §1, §2

SMILES strings stand for the structures.

T1 sequence (P67775 whole entry): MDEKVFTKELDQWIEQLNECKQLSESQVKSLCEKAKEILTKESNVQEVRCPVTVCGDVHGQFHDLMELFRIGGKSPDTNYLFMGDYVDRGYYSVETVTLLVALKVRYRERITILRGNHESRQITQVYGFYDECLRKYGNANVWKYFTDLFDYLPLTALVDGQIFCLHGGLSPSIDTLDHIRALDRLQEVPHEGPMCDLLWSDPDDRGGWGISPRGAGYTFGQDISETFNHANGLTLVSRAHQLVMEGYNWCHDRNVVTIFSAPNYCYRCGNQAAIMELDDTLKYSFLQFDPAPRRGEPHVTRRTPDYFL
T1 sequence (P30153 2-589 partner limits assumed): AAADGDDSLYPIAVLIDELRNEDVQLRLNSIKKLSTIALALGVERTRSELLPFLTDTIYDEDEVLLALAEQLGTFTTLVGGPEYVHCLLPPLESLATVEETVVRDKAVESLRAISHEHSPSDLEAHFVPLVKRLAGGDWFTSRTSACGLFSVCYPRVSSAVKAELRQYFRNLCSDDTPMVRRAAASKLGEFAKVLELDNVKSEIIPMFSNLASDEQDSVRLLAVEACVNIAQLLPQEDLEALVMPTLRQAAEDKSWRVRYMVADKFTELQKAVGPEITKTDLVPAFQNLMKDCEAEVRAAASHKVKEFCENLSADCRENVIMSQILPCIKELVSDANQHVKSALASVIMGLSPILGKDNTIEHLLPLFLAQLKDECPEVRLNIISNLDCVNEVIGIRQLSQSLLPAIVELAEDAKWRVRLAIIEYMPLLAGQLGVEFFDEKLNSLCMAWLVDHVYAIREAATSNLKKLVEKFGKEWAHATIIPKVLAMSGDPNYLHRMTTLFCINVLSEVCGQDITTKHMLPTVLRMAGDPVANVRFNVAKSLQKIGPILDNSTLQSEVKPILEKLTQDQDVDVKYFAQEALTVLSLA

`Oc1cc(O)c2c(c1)O[C@H](c1ccc(O)c(O)c1)[C@@H](O)[C@@H]2c1c(O)cc(O)c2c1O[C@H](c1ccc(O)c(O)c1)[C@@H](O)C2` [Procyanidin B3 (8), Procyanidin B3]: the IC50 (as a rule, the concentration needed to halve the response being measured) was > 1000 µM at PP2A, 3.3 ± 1.2 µM on PRL-1 and 103 ± 1.1 µM on PRL-2. The “fold higher activity toward PRL-1 compared to PRL-3” value at PRL-1 (in vitro, from IC50 values) is given as 38 fold.

On to `Oc1cc(O)c2c(c1)O[C@H](c1ccc(O)c(O)c1)[C@@H](O)[C@@H]2c1c(O)cc(O)c2c1O[C@H](c1ccc(O)c(O)c1)[C@@H](O)[C@@H]2c1c(O)cc(O)c2c1O[C@H](c1ccc(O)c(O)c1)[C@@H](O)C2` [Procyanidin C2 (9), Procyanidin C2], for which the IC50 was 213 ± 72 µM at PP2A, 1.8 ± 1.1 µM on PRL-1 and 15.2 ± 1.4 µM at PRL-2.

(Values after publication PMC4520450, “Procyanidins Negatively Affect the Activity of the Phosphatases of Regenerating Liver” (PLoS ONE, 2015).)
